Measurements from PubChem BioAssay (NCI).
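Test compounds were applied to cells in 96-well plates for 48 hours at 5 doses. At the GI50, growth is halved. TGI is the concentration that stops growth completely.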

Experiments:
Test in all cases: inhibition of tumour cell growth, NCI panel, 48 h
[1] = tested on: LOX IMVI melanoma
[2] = tested on: MDA-MB-231 breast
[3] = tested on: COLO 205 colon
[4] = tested on: K-562 leukemia
[5] = tested on: SN12C renal
[6] = tested on: CCRF-CEM leukemia
[7] = tested on: HCT-116 colon
[8] = tested on: UO-31 renal
[9] = tested on: OVCAR-3 ovarian
[10] = tested on: RPMI-8226 leukemia

| Structure (SMILES) | GI50 [1] | TGI [1] | GI50 [2] | TGI [2] | GI50 [3] | TGI [3] | GI50 [4] | TGI [4] | GI50 [5] | TGI [5] | GI50 [6] | TGI [6] | GI50 [7] | TGI [7] | GI50 [8] | TGI [8] | GI50 [9] | TGI [9] | GI50 [10] | TGI [10] |
| --- | --- | --- | --- | --- | --- | --- | --- | --- | --- | --- | --- | --- | --- | --- | --- | --- | --- | --- | --- | --- |
| Nc1nc(SCc2ccccc2CCl)c2[nH]cnc2n1 | 12.7 µM | 26.9 µM | 14.2 µM | 38 µM | 16.2 µM | 36.1 µM | 32.4 µM | > 100 µM | 21.2 µM | 71.7 µM | 28.5 µM | > 100 µM | 16.2 µM | 33.8 µM | 10.5 µM | 71.9 µM | 14.6 µM | 28.9 µM | 31.9 µM | > 100 µM |
| O=C1/C(=C/c2ccc(Cl)cc2)CCC1CNc1ccc(Cl)cc1 (stereo not given) |  | 15.1 µM |  | 20.5 µM |  | 15.8 µM |  | 21.3 µM |  | 29.4 µM |  | 15.5 µM |  | 44.6 µM |  | 30.1 µM |  | 21.5 µM |  | 6.68 µM |
